Results reported in patent publication US20060142247A1, “Tricyclic heterocycles” (priority 2004, published 2006).

System: HCT 116 cells
Assay: Viability assay HCT 116 cells (CellTiter-Glo)
Assay type: cell-based
Settings: Homo sapiens, HCT-116, 120 h, HCT 116 human colon carcinoma cells, 5 days incubation, CellTiter-Glo luminescence
Description: Viability Assay—HCT 116 Cells
A viability assay was performed using the CellTiter-Glo® Luminescent Cell Viability Assay (see Promega Corporation's Technical Bulletin No. 288, pp. 1-11 [revised 2/04] which is hereby incorporated by reference in its entirety). This assay is a homogeneous method of determining the number of viable cells in culture based on quantitation of the ATP present, an indicator of metabolically active cells. The assay is designed for use with multiwell formats, making it ideal for automated high-throughput screening (HTS), cell proliferation and cytotoxicity assays. The homogeneous assay procedure involves adding a single reagent (containing luciferase, luciferan substrate, and buffer) directly to cells cultured in serum-supplemented medium. Cell washing, removal of medium and multiple pipetting steps are not required. The system detects as few as 15 cells/well in a 384-well format in 10 minutes after adding reagent and mixing.
The homogeneous “add-mix-measure” format results in cell lysis and generation of a luminescent signal proportional to the amount of ATP present. The amount of ATP is directly proportional to the number of cells present in culture. The above-referenced assay generates a “glow-type” luminescent signal, produced by the luciferase reaction, which has a half-life generally greater than five hours, depending on cell type and medium used. The extended half-life eliminates the need to use reagent injectors and provides flexibility for continuous or batch mode processing of multiple plates. The unique homogeneous format avoids errors that may be introduced by other ATP measurement methods that require multiple steps.
HCT 116 cells (human colon carcinoma, ATCC-No. CCl-247) were cultivated in RPMI 1640 medium with GlutaMAX™ I (cell culture media that contains L-Alanyl-L-Glutamine [a stabilized a form/source of L-Glutamine] from Invitrogen, Cat-No. 61870-010), 2.5% Fetal Calf Serum (FCS, Sigma Cat-No. F4135 (FBS)); 100 Units/ml penicillin/100 μg/ml streptomycin (=Pen/Strep from Invitrogen Cat. No. 15140). For the assay the cells were seeded in 384 well plates, 1000 cells per well, in the same medium. The next day the test compounds were added in various concentrations ranging from 30 μM to 0.0015 μM (10 concentrations, 1:3 diluted). After 5 days the viability assay was done according to the instructions of the manufacturer. In brief: the cell-plate was equilibrated to room temperature for approximately 30 minutes and than the reagent (containing luciferase, luciferan substrate, and buffer) was added. The contents were carefully mixed for 15 minutes to induce cell lysis. After 45 minutes the luminescent signal was measured in Victor 2, (scanning multiwell spectrophotometer, Wallac).
Medium: RPMI 1640 with cell culture media containing L-Alanyl-L-Glutamine [GlutaMAX™ I (Invitrogen, Cat-Nr. 61870)], 5% FCS (Sigma Cat.-No. F4135), Pen/Strep (Invitrogen, Cat No. 15140). • HCT116 (ATCC-No. CCl-247): 1000 cells in 60 μl per well of 384 well plate (Greiner 781098, μClear-plate white) • After seeding incubate plates 24 h at 37° C., 5% CO2 2nd. Day: Induction (Treatment with Compounds, 10 Concentrations):
In order to achieve a final concentration of 30 μM as highest concentration […] of 10 mM compound stock solution were added directly to 163 μl media. Then step e) of the dilution procedure described below, was followed.

Structure (SMILES)	IC50
CCN1C(=O)C(C)(C)c2cc3nc(-c4n[nH]c5ccc(C(=O)NCc6ccc(F)cc6F)cc45)[nH]c3cc21 [Example 85, 3-(5-Ethyl-7,7-dimethyl-6-oxo-3,5,6,7-tetrahydro-imidazo[4,5-f]indol-2-yl)-1H-indazole-5-carboxylic acid 2,4-difluoro-benzylamide]	100 to 1000 nM
CCN1C(=O)C(C)(C)c2cc3nc(-c4n[nH]c5ccc(C(=O)NCc6cccc(OC(F)(F)F)c6)cc45)[nH]c3cc21 [Example 86, 3-(5-Ethyl-7,7-dimethyl-6-oxo-3,5,6,7-tetrahydro-imidazo[4,5-f]indol-2-yl)-1H-indazole-5-carboxylic acid 3-trifluoromethoxy-benzylamide]	100 to 1000 nM
CCN1C(=O)C(C)(C)c2cc3nc(-c4n[nH]c5ccc(C(=O)NCc6cccc(Cl)c6)cc45)[nH]c3cc21 [Example 88, 3-(5-Ethyl-7,7-dimethyl-6-oxo-3,5,6,7-tetrahydro-imidazo[4,5-f]indol-2-yl)-1H-indazole-5-carboxylic acid 3-chloro-benzylamide]	100 to 1000 nM
CCN1C(=O)C(C)(C)c2cc3nc(-c4n[nH]c5ccc(C(=O)N6CCSCC6)cc45)[nH]c3cc21 [Example 95, 5-Ethyl-7,7-dimethyl-2-[5-(thiomorpholine-4-carbonyl)-1H-indazol-3-yl]-5,7-dihydro-3H-imidazo[4,5-f]indol-6-one]	100 to 1000 nM
CCN1C(=O)C(C)(C)c2cc3nc(-c4n[nH]c5ccc(C(=O)N6CCSC6)cc45)[nH]c3cc21 [Example 96, 5-Ethyl-7,7-dimethyl-2-[5-(thiazolidine-3-carbonyl)-1H-indazol-3-yl]-5,7-dihydro-3H-imidazo[4,5-f]indol-6-one]	100 to 1000 nM
CCN1C(=O)C(C)(C)c2cc3nc(-c4n[nH]c5ccc(C(N)=O)cc45)[nH]c3cc21 [Example 100, 3-(5-Ethyl-7,7-dimethyl-6-oxo-3,5,6,7-tetrahydro-imidazo[4,5-f]indol-2-yl)-1H-indazole-5-carboxylic acid amide]	1000 to 10000 nM
CCN1C(=O)C(C)(C)c2cc3nc(-c4n[nH]c5ccc(C(=O)OC)cc45)[nH]c3cc21 [Example 101, 3-(5-Ethyl-7,7-dimethyl-6-oxo-3,5,6,7-tetrahydro-imidazo[4,5-f]indol-2-yl)-1H-indazole-5-carboxylic acid methyl ester]	100 to 1000 nM
CCN1C(=O)C(C)(C)c2cc3nc(-c4n[nH]c5ccc(C(C)=O)cc45)[nH]c3cc21 [Example 103, 2-(5-Acetyl-1H-indazol-3-yl)-5-ethyl-7,7-dimethyl-5,7-dihydro-3H-imidazo[4,5-f]indol-6-one]	100 to 1000 nM
CC1(C)C(=O)Nc2cc3[nH]c(-c4n[nH]c5cc(C(=O)NCc6ccccc6)ccc45)nc3cc21 [Example 104, 3-(7,7-Dimethyl-6-oxo-3,5,6,7-tetrahydro-imidazo[4,5-f]indol-2-yl)-1H-indazole-6-carboxylic acid benzylamide]	1000 to 10000 nM
CCN1C(=O)C(C)(C)c2cc3nc(-c4n[nH]c5cc(C(=O)Nc6ccccc6)ccc45)[nH]c3cc21 [Example 108, 3-(5-Ethyl-7,7-dimethyl-6-oxo-3,5,6,7-tetrahydro-imidazo[4,5-f]indol-2-yl)-1H-indazole-6-carboxylic acid phenylamide]	100 to 1000 nM
CCN1C(=O)C(C)(C)c2cc3nc(-c4n[nH]c5cc(C(N)=O)ccc45)[nH]c3cc21 [Example 110, 3-(5-Ethyl-7,7-dimethyl-6-oxo-3,5,6,7-tetrahydro-imidazo[4,5-f]indol-2-yl)-1H-indazole-6-carboxylic acid amide]	1000 to 10000 nM
CCN1C(=O)C(C)(C)c2cc3[nH]c(-c4n[nH]c5ccc(NC(=O)Cc6ccccc6C)cc45)nc3cc21 [Example 113, N-[3-(5-Ethyl-7,7-dimethyl-6-oxo-1,5,6,7-tetrahydro-imidazo[4,5-f]indol-2-yl)-1H-indazol-5-yl]-2-o-tolyl-acetamide]	100 to 1000 nM
CCN1C(=O)C(C)(C)c2cc3[nH]c(-c4n[nH]c5ccc(NC(=O)c6ccccn6)cc45)nc3cc21 [Example 116, Pyridine-2-carboxylic acid [3-(5-ethyl-7,7-dimethyl-6-oxo-1,5,6,7-tetrahydro-imidazo[4,5-f]indol-2-yl)-1H-indazol-5-yl]-amide]	100 to 1000 nM
CCN1C(=O)C(C)(C)c2cc3[nH]c(-c4n[nH]c5ccc(NC(=O)Cc6ccc(C)cc6)cc45)nc3cc21 [Example 117, N-[3-(5-Ethyl-7,7-dimethyl-6-oxo-1,5,6,7-tetrahydro-imidazo[4,5-f]indol-2-yl)-1H-indazol-5-yl]-2-p-tolyl-acetamide]	100 to 1000 nM
CCC(=O)Nc1ccc2[nH]nc(-c3nc4cc5c(cc4[nH]3)C(C)(C)C(=O)N5CC)c2c1 [Example 122, N-[3-(5-Ethyl-7,7-dimethyl-6-oxo-1,5,6,7-tetrahydro-imidazo[4,5-f]indol-2-yl)-1H-indazol-5-yl]-propionamide]	100 to 1000 nM
CCN1C(=O)C(C)(C)c2cc3[nH]c(-c4n[nH]c5ccc(NC(=O)N6CCOCC6)cc45)nc3cc21 [Example 128, Morpholine-4-carboxylic acid [3-(5-ethyl-7,7-dimethyl-6-oxo-1,5,6,7-tetrahydro-imidazo[4,5-f]indol-2-yl)-1H-indazol-5-yl]-amide]	1000 to 10000 nM
CCN1C(=O)C(C)(C)c2cc3[nH]c(-c4n[nH]c5ccc(NC(=O)OCc6ccccc6)cc45)nc3cc21 [Example 130, [3-(5-Ethyl-7,7-dimethyl-6-oxo-1,5,6,7-tetrahydro-imidazo[4,5-f]indol-2-yl)-1H-indazol-5-yl]-carbamic acid benzyl ester]	100 to 1000 nM
CCN1C(=O)C(C)(C)c2cc3[nH]c(-c4n[nH]c5ccc(NS(=O)(=O)c6ccccc6)cc45)nc3cc21 [Example 132, N-[3-(5-Ethyl-7,7-dimethyl-6-oxo-1,5,6,7-tetrahydro-imidazo[4,5-f]indol-2-yl)-1H-indazol-5-yl]-benzenesulfonamide]	100 to 1000 nM
CCN1C(=O)C(C)(C)c2cc3[nH]c(-c4n[nH]c5ccc(NS(=O)(=O)c6ccccc6[N+](=O)[O-])cc45)nc3cc21 [Example 134, N-[3-(5-Ethyl-7,7-dimethyl-6-oxo-1,5,6,7-tetrahydro-imidazo[4,5-f]indol-2-yl)-1H-indazol-5-yl]-2-nitro-benzenesulfonamide]	100 to 1000 nM
CCN1C(=O)C(C)(C)c2cc3[nH]c(-c4n[nH]c5ccc(NS(=O)(=O)c6ccc(F)cc6)cc45)nc3cc21 [Example 137, N-[3-(5-Ethyl-7,7-dimethyl-6-oxo-1,5,6,7-tetrahydro-imidazo[4,5-f]indol-2-yl)-1H-indazol-5-yl]-4-fluoro-benzenesulfonamide]	100 to 1000 nM
CCN1C(=O)C(C)(C)c2cc3[nH]c(-c4n[nH]c5ccc(NS(=O)(=O)c6cccc(Cl)c6)cc45)nc3cc21 [Example 138, 3-Chloro-N-[3-(5-ethyl-7,7-dimethyl-6-oxo-1,5,6,7-tetrahydro-imidazo[4,5-f]indol-2-yl)-1H-indazol-5-yl]-benzenesulfonamide]	100 to 1000 nM
CCN1C(=O)C(C)(C)c2cc3[nH]c(-c4n[nH]c5ccc(NS(=O)(=O)c6ccccc6S(C)(=O)=O)cc45)nc3cc21 [Example 140, N-[3-(5-Ethyl-7,7-dimethyl-6-oxo-1,5,6,7-tetrahydro-imidazo[4,5-f]indol-2-yl)-1H-indazol-5-yl]-2-methanesulfonyl-benzenesulfonamide]	100 to 1000 nM
CCN1C(=O)C(C)(C)c2cc3nc(-c4n[nH]c5ccc(NS(=O)(=O)c6cc(F)ccc6F)cc45)[nH]c3cc21 [Example 141, N-[3-(5-Ethyl-7,7-dimethyl-6-oxo-3,5,6,7-tetrahydro-imidazo[4,5-f]indol-2-yl)-1H-indazol-5-yl]-2,5-difluoro-benzenesulfonamide]	100 to 1000 nM
CC(C)N1C(=O)C(C)(C)c2cc3[nH]c(-c4n[nH]c5ccc(NS(=O)(=O)c6ccc(F)cc6)cc45)nc3cc21 [Example 142, 4-Fluoro-N-[3-(5-isopropyl-7,7-dimethyl-6-oxo-1,5,6,7-tetrahydro-imidazo[4,5-f]indol-2-yl)-1H-indazol-5-yl]-benzenesulfonamide]	100 to 1000 nM
